Results published in patent US11013726B2 (Arbutus Biopharma Corporation, priority 2016, dated 2021).

Legend:
HBV = HBV production assay; type: cell-based; conditions: Hepatitis B virus, 144 h; HepG2.2.15 cells, 6 days, HBV DNA in supernatant by qPCR
Method: HepG2.2.15 cells were maintained and seeded as described above. After administration of test compounds for 6 days, supernatant was collected and clarified by low speed centrifugation. HBV DNA was released from virion in the supernatant by incubating in lysis buffer (Roche, Catalog #07248431001). HBV DNA levels were quantified by qPCR/TaqMan assay. The nucleoside analog Entecavir (ETV) was used as a control to determine inhibition of HBV virion production in the supernatant. Table 4 illustrates EC50 values obtained by the HBV production assay for selected compounds.

HBsAg [1] = assay: In vitro combination study, HBsAg CLIA, MacSynergy II; type: cell-based, hepatitis B virus; parameters: MacSynergy volume: unit not given here; conditions: for Additive % Inhibition (HBsAg) versus negative control / Avg % Inhibition (HBsAg) versus negative control: LNP-1 0.0025, 0.00079, 0.00025, 7.9E−05, 2.5E−05, 0 μM; for Additive % Inhibition versus negative control / MacSynergy volume: LNP-2 0 μM; for MacSynergy volume: 99.99% confidence interval
Method: In vitro combination studies were conducted using the method of Prichard & Shipman, 1990, Antiviral Res. 14(4-5):181-205, and Prichard, et al., MacSynergy II). The HepG2.2.15 cell culture system is a cell line derived from human hepatoblastoma HepG2 cells, that have been stably transfected with the adw2-subtype HBV genome (Sells, et al., 1987, Proc. Natl. Acad. Sci. U.S.A 84:1005-1009). HepG2.2.15 cells secrete Dane-like viral particles, produce HBV DNA, and produce the viral proteins, HBeAg and HBsAg.
Non-limiting examples of HBV RNA destabilizers are Compound A and Compound B. The EC50 values of these agents are shown in Table 12. Although inhibition of HBV DNA, RNA and proteins can be determined in the presence of the compounds of the invention and LNPs (both referred to herein as “agents”), the assay that can quantitatively measure the level of HBsAg was used in this study. To test the agent combinations, HepG2.2.15 (30,000 cells/well) were plated in 96 well tissue-culture treated microtiter plates in DMEM+L-Glutamine medium supplemented with 1% penicillin-streptomycin, 20 μg/mL geneticin (G418), 10% fetal bovine serum, and incubated in a humidified incubator at 37° C. and 5% CO2 overnight. The next day, the cells were replenished with fresh medium followed by the addition of compound of the invention (dissolved in 100% DMSO), and LNP (dissolved in 100% RPMI medium). The agents were added to cells in a checkerboard fashion. The microtiter cell plates were incubated for a total duration of 6 days in a humidified incubator at 37° C. and 5% CO2. On the 3rd day of incubation, the cells were replenished with fresh medium and agents. The serial dilutions spanned concentration ranges respective to the EC50 value of each agent, with the final DMSO concentration of the assay being 0.5%. In addition to combination testing of the agents in a checkerboard fashion, the compound and LNP were also tested alone.
Untreated positive control samples (0.5% DMSO in media) were included on each plate in multiple wells. Following a 6 day-incubation, media was removed from treated cells for use in an HBsAg chemiluminescence immunoassay (CLIA) (Autobio Diagnostics, Cat No. CL0310-2). An HBsAg standard curve was generated to verify that the levels of HBsAg quantification were within the detection limits of the assay. The remaining inhibitor-treated cells were assessed for cytotoxicity by determination of the intracellular adenosine triphosphate (ATP) using a Cell-Titer Glo reagent (Promega) as per manufacturers instructions and by microscopic analysis of the cells throughout the duration of inhibitor treatment. Cell viability was calculated as a percentage of the untreated positive control wells.
The plates were read using an EnVision multimode plate reader (PerkinElmer Model 2104). […] The RLU data from the single agent treated cells were analyzed using XL-Fit module in Microsoft Excel to determine EC50 values using a 4-parameter curve fitting algorithm.

[2] = clearance from blood plasma in dogs; type: in vivo
Source text: (§1) The compounds of the invention disclosed in the present application were screened to evaluate their potency and toxicity profiles. Several compounds having desirable potency and toxicity profiles were identified in these screens.

isolated heart = assay: Langendorff assay; conditions: any of the concentrations tested
Source text: as §1

HBsAg [3] = assay: HBsAg assay; type: cell-based, hepatitis B virus; conditions: Hepatitis B virus, HepG2.2.15, 144 h, read-out: sAg EC50, μM, HepG2.2.15 cells, day 6
How it was run: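 HepG2.2.15 cells were treated with serially diluted compounds (0.5% DMSO), with medium and compound renewed after 2-3 days. Secreted HBsAg measured at day 6 by chemiluminescence immunoassay; EC50 from dose-response curves. Viability assessed in parallel by CellTiter-Glo.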

COCCOc1cc2c(cc1Cl)-c1cc(=O)c(C(=O)O)cn1C(C(C)C)CO2 (stereo not drawn) [drawing 618]
EC50 (HBV): 0.046 µM

COc1cc2c(cc1Cl)-c1cc(=O)c(C(=O)O)cn1[C@H](C(C)C)CO2
EC50 (HBV): 0.03 µM

COCCCOc1cc2c(cc1Cl)-c1cc(=O)c(C(=O)O)cn1[C@H](C(C)C)CO2 [drawing 614]
EC50 (HBV): 0.009 µM

CC(C)[C@@H]1COc2cc(OCCCO)c(Cl)cc2-c2cc(=O)c(C(=O)O)cn21 [drawing 616]
EC50 (HBV): 0.007 µM

COc1cc2c(nc1OC)-c1cc(=O)c(C(=O)O)cn1C(C(C)C)C2 (stereo not drawn) [drawing 619]
EC50 (HBV): 0.002 µM

CC(C)[C@@H]1COc2cc(OCCCCO)c(Cl)cc2-c2cc(=O)c(C(=O)O)cn21 [drawing 617]
EC50 (HBV): 0.02 µM

CC(C)(C)C1Cc2cc3c(cc2-c2cc(=O)c(C(=O)O)cn21)OCCCO3 (stereo not drawn) [drawing 612]
EC50 (HBV): 0.007 µM

COCCCOc1cc2c(cc1Cl)-c1cc(=O)c(C(=O)O)cn1[C@H](C(C)C)CO2 [Compound B]
Additive % Inhibition (HBsAg) versus negative control (HBsAg [1]; Compound B 0.0002 μM): 19.99%
Avg % Inhibition (HBsAg) versus negative control (HBsAg [1]; Compound B 0.0002 μM): 19.99%
Additive % Inhibition (HBsAg) versus negative control (HBsAg [1]; Compound B 0.0006 μM): 22.24%
Avg % Inhibition (HBsAg) versus negative control (HBsAg [1]; Compound B 0.0006 μM): 22.24%
Additive % Inhibition (HBsAg) versus negative control (HBsAg [1]; Compound B 0.002 μM): 28.73%
Avg % Inhibition (HBsAg) versus negative control (HBsAg [1]; Compound B 0.002 μM): 28.73%
Additive % Inhibition (HBsAg) versus negative control (HBsAg [1]; Compound B 0.006 μM): 39.16%
Avg % Inhibition (HBsAg) versus negative control (HBsAg [1]; Compound B 0.006 μM): 39.16%
Additive % Inhibition (HBsAg) versus negative control (HBsAg [1]; Compound B 0.02 μM): 61.93%
Avg % Inhibition (HBsAg) versus negative control (HBsAg [1]; Compound B 0.02 μM): 61.93%
Additive % Inhibition (HBsAg) versus negative control (HBsAg [1]; Compound B 0.06 μM): 80.51%
Avg % Inhibition (HBsAg) versus negative control (HBsAg [1]; Compound B 0.06 μM): 80.51%
Additive % Inhibition (HBsAg) versus negative control (HBsAg [1]; Compound B 0.20 μM): 89.95%
Avg % Inhibition (HBsAg) versus negative control (HBsAg [1]; Compound B 0.20 μM): 89.95%
Additive % Inhibition (HBsAg) versus negative control (HBsAg [1]; Compound B 0.63 μM): 92.6%
Avg % Inhibition (HBsAg) versus negative control (HBsAg [1]; Compound B 0.63 μM): 92.6%
Additive % Inhibition (HBsAg) versus negative control (HBsAg [1]; Compound B 2 μM): 93.51%
Avg % Inhibition (HBsAg) versus negative control (HBsAg [1]; Compound B 2 μM): 93.51%
Additive % Inhibition versus negative control (HBsAg [1]; Compound B 0.0002 μM): 16.15%
MacSynergy volume (HBsAg [1]; Compound B 0.0002 μM): 0
Additive % Inhibition versus negative control (HBsAg [1]; Compound B 0.0006 μM): 18.39%
MacSynergy volume (HBsAg [1]; Compound B 0.0006 μM): 0
Additive % Inhibition versus negative control (HBsAg [1]; Compound B 0.002 μM): 21.16%
MacSynergy volume (HBsAg [1]; Compound B 0.002 μM): 0
Additive % Inhibition versus negative control (HBsAg [1]; Compound B 0.006 μM): 31.66%
MacSynergy volume (HBsAg [1]; Compound B 0.006 μM): 0
Additive % Inhibition versus negative control (HBsAg [1]; Compound B 0.02 μM): 51.93%
MacSynergy volume (HBsAg [1]; Compound B 0.02 μM): 0
Additive % Inhibition versus negative control (HBsAg [1]; Compound B 0.06 μM): 74.92%
MacSynergy volume (HBsAg [1]; Compound B 0.06 μM): 0
Additive % Inhibition versus negative control (HBsAg [1]; Compound B 0.20 μM): 86.86%
MacSynergy volume (HBsAg [1]; Compound B 0.20 μM): 0
Additive % Inhibition versus negative control (HBsAg [1]; Compound B 0.63 μM): 91.2%
MacSynergy volume (HBsAg [1]; Compound B 0.63 μM): 0
Additive % Inhibition versus negative control (HBsAg [1]; Compound B 2 μM): 92.52%
MacSynergy volume (HBsAg [1]; Compound B 2 μM): 0

COCCCOc1cc2c(nc1OC)-c1cc(=O)c(C(=O)O)cn1[C@H](C(C)C)C2 (single isomer, unassigned) [Example 22]
clearance from blood plasma [2]: cleared relatively slowly
effect on measured electrocardiogram parameters (isolated heart): no effect on any of the measured electrocardiogram parameters
EC50 (HBsAg [3]): 0.002 µM

COc1cc2c(cc1Cl)-c1cc(=O)c(C(=O)O)cn1C(C(C)C)CO2 (stereo not drawn)
EC50 (HBV): 0.077 µM

COCCCOc1cc2c(nc1OC)-c1cc(=O)c(C(=O)O)cn1[C@H](C(C)C)C2 [drawing 615]
EC50 (HBV): 0.0004 µM
